Laboratory results published in ChEMBL document CHEMBL6182935, “Discovery of a Novel Silybin Derivative for the Treatment of Metabolic Dysfunction-Associated Steatohepatitis” (J Med Chem, 2025).
Activity calls are given as the source filed them. No cut-off for these calls is given here.

Legend:
[1] = system: Mus musculus; test: Anti-MASH activity in HFD-fed CCl4-treated male C57BL/6 mouse assessed as restoration of serum AST level at 150 mg/kg, po qd treated for 4 weeks; format: functional, organism-based
[2] = system: L02; test: Anti-inflammatory activity in CCl4-stimulated human LO2 cells assessed as reduction in IL-6 mRNA level at 1 uM; format: functional, cell-based
[3] = Cmax in overnight-fasted male Sprague-Dawley rat at 150 mg/kg, po measured up to 12 hrs by HPLC analysis; format: ADME, organism-based; conditions: in vivo
[4] = system: Mus musculus; test: Anti-MASH activity in HFD-fed CCl4-treated male C57BL/6 mouse assessed as restoration of liver GSH-Px level at 150 mg/kg, po qd treated for 4 weeks; format: functional, organism-based
[5] = system: Hepatocyte; test: Anti-MASH activity in palmitate/oleate-stimulated mouse primary hepatocytes assessed as reduction in lipid accumulation by Oil Red O staining assay; format: functional, cell-based
[6] = system: Mus musculus; test: Anti-MASH activity in HFD-fed CCl4-treated male C57BL/6 mouse assessed as restoration of liver SOD level at 150 mg/kg, po qd treated for 4 weeks; format: functional, organism-based
[7] = Acute toxicity in male KM mouse assessed as animal suvival at 2 g/kg, po administered as single dose measured after 2 weeks; format: organism-based; conditions: in vivo, 2000 mg/kg, 336 h
[8] = system: Mus musculus; test: Anti-MASH activity in HFD-fed CCl4-treated male C57BL/6 mouse assessed as reduction in serum LDL cholesterol level at 150 mg/kg, po qd treated for 4 weeks; format: functional, organism-based
[9] = Terminal half life in overnight-fasted male Sprague-Dawley rat at 150 mg/kg, po measured up to 12 hrs by HPLC analysis; format: ADME, organism-based; conditions: in vivo, read-out: beta t1/2 (converted)
[10] = system: Mus musculus; test: Anti-MASH activity in HFD-fed CCl4-treated male C57BL/6 mouse assessed as restoration of serum ALT level at 150 mg/kg, po qd treated for 4 weeks; format: functional, organism-based

COc1cc([C@@H]2Oc3cc([C@H]4Oc5cc(O)cc(O)c5C(=O)[C@@H]4O)ccc3OC2CS)ccc1O (stereo not given in full)
Activity [1]: Active; Activity Was Better Than Silybin
Activity [2]: Active
Cmax [3]: 4080 ng/mL
Activity [4]: Active
Activity [5]: Active
Activity [6]: Active
Activity [7]: Non-toxic
Activity [8]: Active
half-life [9]: 1.55 h
Activity [10]: Active; Activity Was Better Than Silybin
